Measurements: the supplement of paper PMC12463676, “Small-molecule dissolution of stress granules by redox modulation benefits ALS models” (Nature Chemical Biology, 2025)

Columns and labels:
lipoamide = compound: NC(=O)CCCCC1CCSS1 [lipoamide]; experiment: thermal stability z-score vs DMSO; higher = more thermally stabilized by treatment; conditions: HeLa, lipoamide concentration 100 µM
Protocol: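 Cellular thermal proteome profiling in HeLa cells. Cells were treated with 100 µM lipoamide for 1 h, with or without 1 mM arsenate for a further 1 h, then heated to ten temperatures (37-66.3 °C), and soluble protein was quantified by TMT mass spectrometry relative to 0.1% DMSO controls. The thermal stability score (sum of log2 fold changes minus the abundance score) was transformed to a z-score; mean of n = 3 experiments.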

potassium arsenate = compound: O=[As]([O-])(O)O.[K+] [potassium arsenate]; experiment: as above; conditions: HeLa; arsenate concentration 1 mM
Protocol: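 Cellular thermal proteome profiling in HeLa cells treated with 1 mM arsenate for 1 h (DMSO pretreatment), heated to ten temperatures (37-66.3 °C). Soluble protein was quantified by TMT mass spectrometry relative to DMSO controls; the thermal stability score was transformed to a z-score; mean of n = 3 experiments.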

[1] = arsenate co-treatment: 1 mM arsenate 1 h
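Note: each temperature applied for 3 min, abundance score taken as mean log2 fold change at the two lowest temperatures, z-score obtained by mean subtraction and division by SD.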

UniProt Q9UHF1, sequence (Q9UHF1 whole entry): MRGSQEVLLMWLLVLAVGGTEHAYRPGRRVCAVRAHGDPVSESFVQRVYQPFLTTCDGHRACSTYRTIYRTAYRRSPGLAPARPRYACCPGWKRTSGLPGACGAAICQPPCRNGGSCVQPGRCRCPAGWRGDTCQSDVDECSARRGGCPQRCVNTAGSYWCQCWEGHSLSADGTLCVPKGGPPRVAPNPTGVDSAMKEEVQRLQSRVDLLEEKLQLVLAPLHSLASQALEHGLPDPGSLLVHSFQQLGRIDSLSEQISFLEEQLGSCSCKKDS
UniProt Q9BY44, sequence (Q9BY44 whole entry): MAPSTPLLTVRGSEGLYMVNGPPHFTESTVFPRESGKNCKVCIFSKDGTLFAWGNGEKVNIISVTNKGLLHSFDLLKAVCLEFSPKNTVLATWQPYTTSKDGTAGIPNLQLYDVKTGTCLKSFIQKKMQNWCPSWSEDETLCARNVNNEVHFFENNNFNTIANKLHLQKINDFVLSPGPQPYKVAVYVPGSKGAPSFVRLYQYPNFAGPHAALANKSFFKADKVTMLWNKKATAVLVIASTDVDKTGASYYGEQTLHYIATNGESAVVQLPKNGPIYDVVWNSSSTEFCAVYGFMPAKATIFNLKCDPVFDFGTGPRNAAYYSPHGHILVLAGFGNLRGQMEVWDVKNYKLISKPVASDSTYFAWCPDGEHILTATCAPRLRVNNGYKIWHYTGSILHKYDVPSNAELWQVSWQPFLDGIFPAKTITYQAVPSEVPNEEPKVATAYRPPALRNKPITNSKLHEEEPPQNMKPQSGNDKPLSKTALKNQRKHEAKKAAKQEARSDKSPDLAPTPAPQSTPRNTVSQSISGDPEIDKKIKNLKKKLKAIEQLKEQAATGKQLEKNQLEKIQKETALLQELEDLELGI
UniProt P47813, sequence (P47813 whole entry): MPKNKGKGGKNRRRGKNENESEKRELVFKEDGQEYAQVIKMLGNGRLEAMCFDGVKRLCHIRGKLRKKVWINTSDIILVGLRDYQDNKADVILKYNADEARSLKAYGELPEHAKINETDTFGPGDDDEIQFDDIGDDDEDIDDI
UniProt Q9GZT9, sequence (Q9GZT9 whole entry, looked up): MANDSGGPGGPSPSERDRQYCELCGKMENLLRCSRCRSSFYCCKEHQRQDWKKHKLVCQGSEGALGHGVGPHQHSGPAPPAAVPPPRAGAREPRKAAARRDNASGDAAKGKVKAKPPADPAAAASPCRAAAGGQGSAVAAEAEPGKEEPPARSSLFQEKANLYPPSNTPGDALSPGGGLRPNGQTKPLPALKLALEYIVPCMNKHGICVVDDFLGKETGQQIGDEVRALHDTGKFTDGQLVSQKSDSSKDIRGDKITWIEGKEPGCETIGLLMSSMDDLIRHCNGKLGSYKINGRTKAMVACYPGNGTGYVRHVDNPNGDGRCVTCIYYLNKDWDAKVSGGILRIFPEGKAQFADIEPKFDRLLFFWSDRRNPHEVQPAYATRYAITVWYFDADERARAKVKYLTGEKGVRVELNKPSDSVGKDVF
UniProt Q9NZJ5, sequence (Q9NZJ5 whole entry): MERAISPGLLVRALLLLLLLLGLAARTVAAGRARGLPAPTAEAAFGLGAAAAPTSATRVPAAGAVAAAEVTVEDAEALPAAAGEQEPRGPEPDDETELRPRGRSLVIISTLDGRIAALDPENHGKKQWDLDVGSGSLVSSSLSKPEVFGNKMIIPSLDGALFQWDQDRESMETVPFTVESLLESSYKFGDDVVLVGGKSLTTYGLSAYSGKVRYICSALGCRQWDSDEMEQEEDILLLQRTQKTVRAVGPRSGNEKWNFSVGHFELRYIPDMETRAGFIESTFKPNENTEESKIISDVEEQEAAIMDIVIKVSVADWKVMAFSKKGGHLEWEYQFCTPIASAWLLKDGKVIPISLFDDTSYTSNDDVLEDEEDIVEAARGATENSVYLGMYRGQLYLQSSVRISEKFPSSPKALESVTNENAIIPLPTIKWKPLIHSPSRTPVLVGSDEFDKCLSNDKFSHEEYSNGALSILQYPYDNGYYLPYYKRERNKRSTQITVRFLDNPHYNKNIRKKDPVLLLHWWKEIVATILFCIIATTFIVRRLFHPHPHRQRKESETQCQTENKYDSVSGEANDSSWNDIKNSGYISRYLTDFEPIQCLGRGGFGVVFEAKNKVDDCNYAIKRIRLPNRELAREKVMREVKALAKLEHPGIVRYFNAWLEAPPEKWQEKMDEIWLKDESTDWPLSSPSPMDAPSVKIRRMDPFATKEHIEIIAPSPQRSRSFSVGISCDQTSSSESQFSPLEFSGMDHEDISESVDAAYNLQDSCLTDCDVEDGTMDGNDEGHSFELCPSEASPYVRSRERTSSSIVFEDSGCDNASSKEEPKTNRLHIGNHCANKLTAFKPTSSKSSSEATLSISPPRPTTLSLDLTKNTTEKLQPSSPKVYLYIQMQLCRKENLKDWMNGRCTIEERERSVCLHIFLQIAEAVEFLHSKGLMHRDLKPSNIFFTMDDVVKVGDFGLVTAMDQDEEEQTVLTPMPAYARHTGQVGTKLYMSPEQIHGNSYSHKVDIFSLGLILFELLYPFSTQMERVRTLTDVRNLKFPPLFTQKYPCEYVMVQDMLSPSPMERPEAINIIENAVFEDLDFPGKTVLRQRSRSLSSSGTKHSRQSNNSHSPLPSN
UniProt P41214, sequence (P41214 whole entry): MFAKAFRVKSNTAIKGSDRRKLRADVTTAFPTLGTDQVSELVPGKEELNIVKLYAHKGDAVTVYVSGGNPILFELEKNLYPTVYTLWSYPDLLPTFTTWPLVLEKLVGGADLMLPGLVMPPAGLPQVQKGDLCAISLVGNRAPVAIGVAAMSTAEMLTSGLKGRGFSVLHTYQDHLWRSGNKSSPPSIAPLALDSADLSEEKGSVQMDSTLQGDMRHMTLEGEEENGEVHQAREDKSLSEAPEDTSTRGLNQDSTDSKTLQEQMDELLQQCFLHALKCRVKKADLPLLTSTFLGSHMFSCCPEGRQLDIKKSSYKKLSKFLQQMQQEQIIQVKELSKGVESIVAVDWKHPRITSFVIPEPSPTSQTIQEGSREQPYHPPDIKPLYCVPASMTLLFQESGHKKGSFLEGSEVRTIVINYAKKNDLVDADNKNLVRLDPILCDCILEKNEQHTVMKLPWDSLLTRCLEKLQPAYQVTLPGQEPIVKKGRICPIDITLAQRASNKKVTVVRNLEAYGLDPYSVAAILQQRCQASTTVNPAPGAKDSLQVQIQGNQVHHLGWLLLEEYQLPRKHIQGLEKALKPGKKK
UniProt Q8NDI1, sequence (Q8NDI1 whole entry): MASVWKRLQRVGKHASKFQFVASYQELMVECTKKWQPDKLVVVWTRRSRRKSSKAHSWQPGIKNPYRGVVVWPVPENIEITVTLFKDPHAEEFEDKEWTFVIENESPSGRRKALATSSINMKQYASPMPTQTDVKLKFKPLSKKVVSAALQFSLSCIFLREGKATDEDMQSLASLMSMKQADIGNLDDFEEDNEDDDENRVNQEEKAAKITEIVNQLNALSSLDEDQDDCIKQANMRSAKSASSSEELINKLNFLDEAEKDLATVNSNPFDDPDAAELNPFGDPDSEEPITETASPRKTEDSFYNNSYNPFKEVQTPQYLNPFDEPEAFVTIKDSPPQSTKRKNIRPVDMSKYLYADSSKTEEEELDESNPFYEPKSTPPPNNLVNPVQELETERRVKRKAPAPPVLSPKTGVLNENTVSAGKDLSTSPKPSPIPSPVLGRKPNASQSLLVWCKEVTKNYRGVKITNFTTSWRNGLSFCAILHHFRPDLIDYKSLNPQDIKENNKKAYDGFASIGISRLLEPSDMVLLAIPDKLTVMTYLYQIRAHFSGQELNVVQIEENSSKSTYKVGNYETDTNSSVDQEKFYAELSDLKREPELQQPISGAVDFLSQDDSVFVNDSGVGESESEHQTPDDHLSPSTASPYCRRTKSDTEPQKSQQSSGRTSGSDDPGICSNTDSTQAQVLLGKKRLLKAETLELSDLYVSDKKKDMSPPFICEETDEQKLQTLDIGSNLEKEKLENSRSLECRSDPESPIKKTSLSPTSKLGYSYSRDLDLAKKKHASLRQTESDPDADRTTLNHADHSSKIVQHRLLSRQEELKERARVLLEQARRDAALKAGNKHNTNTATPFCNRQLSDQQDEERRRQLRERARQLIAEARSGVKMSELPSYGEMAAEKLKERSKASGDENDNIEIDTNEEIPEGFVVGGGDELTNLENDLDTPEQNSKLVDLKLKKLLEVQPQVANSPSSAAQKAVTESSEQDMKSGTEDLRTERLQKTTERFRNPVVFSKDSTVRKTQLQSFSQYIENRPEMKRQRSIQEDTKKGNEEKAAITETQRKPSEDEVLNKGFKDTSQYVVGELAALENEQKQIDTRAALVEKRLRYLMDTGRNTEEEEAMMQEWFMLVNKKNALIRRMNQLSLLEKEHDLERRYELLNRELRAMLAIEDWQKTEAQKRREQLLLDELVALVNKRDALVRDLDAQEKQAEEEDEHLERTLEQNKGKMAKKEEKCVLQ
UniProt Q9NZN4, sequence (Q9NZN4 whole entry): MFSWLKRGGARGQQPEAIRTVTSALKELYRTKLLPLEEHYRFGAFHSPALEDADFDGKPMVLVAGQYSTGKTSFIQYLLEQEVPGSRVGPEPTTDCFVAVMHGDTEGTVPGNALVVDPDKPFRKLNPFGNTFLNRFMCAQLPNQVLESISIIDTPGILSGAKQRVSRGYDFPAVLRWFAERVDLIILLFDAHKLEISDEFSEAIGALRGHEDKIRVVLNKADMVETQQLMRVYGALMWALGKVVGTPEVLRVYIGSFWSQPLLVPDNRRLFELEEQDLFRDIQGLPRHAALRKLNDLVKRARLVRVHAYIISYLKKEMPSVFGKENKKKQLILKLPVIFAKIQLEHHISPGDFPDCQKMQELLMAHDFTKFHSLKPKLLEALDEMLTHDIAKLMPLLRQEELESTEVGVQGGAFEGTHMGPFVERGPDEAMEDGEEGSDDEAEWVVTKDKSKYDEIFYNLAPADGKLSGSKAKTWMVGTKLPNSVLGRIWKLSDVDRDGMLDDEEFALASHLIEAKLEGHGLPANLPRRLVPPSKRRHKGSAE
UniProt P41567, sequence (P41567 whole entry): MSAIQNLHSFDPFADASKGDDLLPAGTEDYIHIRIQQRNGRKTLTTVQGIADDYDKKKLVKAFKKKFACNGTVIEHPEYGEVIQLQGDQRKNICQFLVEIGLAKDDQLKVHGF

Row | Target | thermal stability z-score (lipoamide; [1]) | thermal stability z-score (lipoamide; arsenate co-treatment: none) | thermal stability z-score (potassium arsenate)
1 | EFEMP1 (UniProt Q12805) | -3.26 | -2.96 | 0.134
2 | EFHD2 (UniProt Q96C19) | 0.403 | 0.677 | -0.223
3 | EFL1 (UniProt Q7Z2Z2) | -0.245 | 0.0406 | 0.402
4 | EFTUD2 (UniProt Q15029) | 0.0587 | -0.0524 | -0.28
5 | EGFL7 (UniProt Q9UHF1) | 0.126 | 0.102 | -0.108
6 | EGFR (UniProt P00533) | -1.07 | -0.989 | -1.02
7 | EGLN1 (UniProt Q9GZT9) | 0.176 | 0.423 | 1.64
8 | EHBP1 (UniProt Q8NDI1) | 0.0509 | 0.183 | -0.166
9 | EHBP1L1 (UniProt Q8N3D4) | -0.423 | -0.0281 | -0.3
10 | EHD1 (UniProt Q9H4M9) | -0.0636 | 0.13 | -0.0304
11 | EHD2 (UniProt Q9NZN4) | -0.612 | -0.489 | -0.781
12 | EHD4 (UniProt Q9H223) | 0.435 | 0.326 | -0.477
13 | EHMT2 (UniProt Q96KQ7) | 0.132 | 0.0958 | -0.273
14 | EI24 (UniProt O14681) | 0.221 | -0.249 | -0.123
15 | EIF1 (UniProt P41567) | -0.179 | -0.0958 | -0.193
16 | EIF1AD (UniProt Q8N9N8) | 0.433 | 0.98 | 1.09
17 | EIF1AX (UniProt P47813) | -0.268 | 0.0406 | 0.464
18 | EIF2A (UniProt Q9BY44) | 0.673 | 0.102 | 1.13
19 | EIF2AK1 (UniProt Q9BQI3) | -0.867 | 0.23 | 0.583
20 | EIF2AK2 (UniProt P19525) | -0.0654 | -0.252 | -1.01
21 | EIF2AK3 (UniProt Q9NZJ5) | -0.372 | -0.109 | -0.317
22 | EIF2AK4 (UniProt Q9P2K8) | 0.566 | 0.141 | 2.05
23 | EIF2B1 (UniProt Q14232) | 0.317 | 0.317 | 0.364
24 | EIF2B2 (UniProt P49770) | 1.07 | 0.55 | 0.643
25 | EIF2B3 (UniProt Q9NR50) | -0.44 | 0.0579 | 0.582
26 | EIF2B4 (UniProt Q9UI10) | -0.154 | 0.0556 | 0.533
27 | EIF2B5 (UniProt Q13144) | -0.392 | 0.253 | 0.878
28 | EIF2D (UniProt P41214) | -1.12 | -0.337 | -1.22
29 | EIF2S1 (UniProt P05198) | -0.375 | -0.142 | 0.0905
30 | EIF2S2 (UniProt P20042) | 0.121 | 0.0416 | -0.16
